Assay results as given in PubChem BioAssay AID248 (DTP/NCI, 2004).
Several values for one entry are separate records, joined by “and”; a condition that tells them apart may be missing. Equal values may be shown once. Inconclusive results and toxic doses are left out.

Test system: L1210 leukemia ip in BDF1 mice, survival T/C
Assay: NCI In Vivo Anticancer Drug Screen. Data for tumor model L1210 Leukemia (intraperitoneal) in B6D2F1 (BDF1) mice
Conditions: endpoint: mean survival time, higher = longer survival
How it was run: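 In this screen, tumor-bearing mice given compound are compared to those given vehicle, and their survival values are reported as a treated-to-control quotient.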

[1] = dose: 100.0 mg/kg/injection, schedule: Q04DX002 (ip), vehicle: saline with Tween-80
[2] = dose: 200.0 mg/kg/injection, schedule: Q04DX002 (ip), vehicle: saline with Tween-80
[3] = dose: 400.0 mg/kg/injection, schedule: Q04DX002 (ip), vehicle: saline with Tween-80
[4] = dose: 100.0 mg/kg/injection, schedule: Q04DX003 (ip), vehicle: Klucel (hydroxypropylcellulose) (HPC)
[5] = dose: 200.0 mg/kg/injection, schedule: Q04DX003 (ip), vehicle: Klucel (hydroxypropylcellulose) (HPC)
[6] = dose: 400.0 mg/kg/injection, schedule: Q04DX003 (ip), vehicle: Klucel (hydroxypropylcellulose) (HPC)
[7] = dose: 100.0 mg/kg/injection, schedule: Q01DX009 (ip), vehicle: saline
[8] = dose: 200.0 mg/kg/injection, schedule: Q01DX009 (ip), vehicle: saline
[9] = dose: 400.0 mg/kg/injection, schedule: Q01DX009 (ip), vehicle: saline
[10] = dose: 100.0 mg/kg/injection, schedule: Q04DX003 (ip), vehicle: saline with Tween-80
[11] = dose: 200.0 mg/kg/injection, schedule: Q04DX003 (ip), vehicle: saline with Tween-80
[12] = dose: 400.0 mg/kg/injection, schedule: Q04DX003 (ip), vehicle: saline with Tween-80
[13] = dose: 100.0 mg/kg/injection, schedule: Q01DX001 (ip), vehicle: saline

SMILES: C[C@]12CC[C@@H](O)C[C@H]1CC[C@@H]1[C@@H]2CC[C@]2(C)C(=O)CC[C@@H]12
- T/C (dose: 100.0 mg/kg/injection, schedule: Q01DX001 (sc), vehicle: steriod suspending solution): 101 % of control
- T/C [1]: 100 % of control
- T/C (dose: 200.0 mg/kg/injection, schedule: Q01DX001 (sc), vehicle: steriod suspending solution): 95 % of control
- T/C [2]: 96 % of control
- T/C (dose: 400.0 mg/kg/injection, schedule: Q01DX001 (sc), vehicle: steriod suspending solution): 95 % of control
- T/C [3]: 100 % of control

SMILES: O=C(O)CCC(=O)Nc1ccc2c(c1)B(O)OC2
- T/C (dose: 50.0 mg/kg/injection, schedule: Q04DX003 (ip), vehicle: Klucel (hydroxypropylcellulose) (HPC)): 101 % of control
- T/C [4]: 96 % of control and 90 % of control
- T/C [5]: 96 % of control
- T/C [6]: 88 % of control

SMILES: Oc1ccccc1C=NCCN1CC1.Oc1ccccc1C=NCCN1CC1.[Cu]
- T/C (dose: 6.25 mg/kg/injection, schedule: Q01DX001 (ip), vehicle: Klucel (hydroxypropylcellulose) (HPC)): 88 % of control
- T/C (dose: 12.5 mg/kg/injection, schedule: Q01DX001 (ip), vehicle: Klucel (hydroxypropylcellulose) (HPC)): 95 % of control
- T/C (dose: 25.0 mg/kg/injection, schedule: Q01DX001 (ip), vehicle: Klucel (hydroxypropylcellulose) (HPC)): 95 % of control

SMILES: N#CC(C#N)=CN1CCCCCC1
- T/C (dose: 6.25 mg/kg/injection, schedule: Q01DX009 (ip), vehicle: saline with Tween-80): 93 % of control
- T/C (dose: 6.25 mg/kg/injection, schedule: Q04DX003 (ip), vehicle: saline with Tween-80): 96 % of control
- T/C (dose: 12.5 mg/kg/injection, schedule: Q01DX009 (ip), vehicle: saline with Tween-80): 94 % of control
- T/C (dose: 12.5 mg/kg/injection, schedule: Q04DX003 (ip), vehicle: saline with Tween-80): 92 % of control
- T/C (dose: 25.0 mg/kg/injection, schedule: Q01DX009 (ip), vehicle: saline with Tween-80): 89 % of control
- T/C (dose: 25.0 mg/kg/injection, schedule: Q04DX003 (ip), vehicle: saline with Tween-80): 94 % of control

SMILES: Nc1cc(Sc2ccc(Cl)cc2)nc(N)n1
- T/C (dose: 100.0 mg/kg/injection, schedule: Q01DX001 (ip), vehicle: saline with Tween-80): 100 % of control
- T/C (dose: 200.0 mg/kg/injection, schedule: Q01DX001 (ip), vehicle: saline with Tween-80): 100 % of control
- T/C (dose: 400.0 mg/kg/injection, schedule: Q01DX001 (ip), vehicle: saline with Tween-80): 100 % of control

SMILES: CCCCOC(=O)Oc1ccc(C(=O)Oc2ccc(OCC)cc2)cc1
- T/C (dose: 100.0 mg/kg/injection, schedule: Q01DX009 (ip), vehicle: Klucel (hydroxypropylcellulose) (HPC)): 111 % of control
- T/C [4]: 104 % of control
- T/C (dose: 200.0 mg/kg/injection, schedule: Q01DX009 (ip), vehicle: Klucel (hydroxypropylcellulose) (HPC)): 106 % of control
- T/C [5]: 109 % of control
- T/C [6]: 98 % of control

SMILES: COC(=O)c1c(C)n(C)c2c1c1c(O)c3c(O)c(C)c4c(c32)C(=O)C(C)(O/C=C/C(OC)C(C)C(OC(C)=O)C(C)C(O)C(C)C(O)C(C)/C=C\C=C(C)C(=O)N1)O4 (stereo not drawn)
- T/C (dose: 50.0 mg/kg/injection, schedule: Q04DX003 (ip), vehicle: water): 104 % of control
- T/C (dose: 100.0 mg/kg/injection, schedule: Q04DX003 (ip), vehicle: water): 100 % of control
- T/C (dose: 200.0 mg/kg/injection, schedule: Q04DX003 (ip), vehicle: water): 98 % of control
- T/C (dose: 400.0 mg/kg/injection, schedule: Q04DX003 (ip), vehicle: water): 98 % of control

SMILES: Cc1ccc(/C=C2/COC/C(=C\c3ccc(C)cc3)C2=O)cc1
- T/C (dose: 6.0 mg/kg/injection, schedule: Q01DX009 (ip), vehicle: saline): 96 % of control
- T/C (dose: 12.0 mg/kg/injection, schedule: Q01DX001 (ip), vehicle: saline): 88 % of control
- T/C (dose: 12.0 mg/kg/injection, schedule: Q01DX009 (ip), vehicle: saline): 94 % of control
- T/C (dose: 25.0 mg/kg/injection, schedule: Q01DX001 (ip), vehicle: saline): 93 % of control
- T/C (dose: 25.0 mg/kg/injection, schedule: Q01DX009 (ip), vehicle: saline): 109 % of control

SMILES: Nc1ccncn1
- T/C (dose: 100.0 mg/kg/injection, schedule: Q01DX005 (ip), vehicle: saline): 94 % of control
- T/C [7]: 99 % of control
- T/C (dose: 100.0 mg/kg/injection, schedule: Q04DX002 (ip), vehicle: saline): 96 % of control
- T/C (dose: 200.0 mg/kg/injection, schedule: Q01DX005 (ip), vehicle: saline): 97 % of control
- T/C [8]: 96 % of control
- T/C (dose: 200.0 mg/kg/injection, schedule: Q04DX002 (ip), vehicle: saline): 96 % of control
- T/C (dose: 400.0 mg/kg/injection, schedule: Q01DX005 (ip), vehicle: saline): 105 % of control
- T/C [9]: 96 % of control
- T/C (dose: 400.0 mg/kg/injection, schedule: Q04DX002 (ip), vehicle: saline): 100 % of control

SMILES: O=C1CCC(c2ccc3c(c2)CCCC3)O1 (stereo not drawn)
- T/C (dose: 50.0 mg/kg/injection, schedule: Q01DX009 (ip), vehicle: saline with Tween-80): 97 % of control
- T/C (dose: 100.0 mg/kg/injection, schedule: Q01DX009 (ip), vehicle: saline with Tween-80): 95 % of control
- T/C [10]: 105 % of control
- T/C (dose: 200.0 mg/kg/injection, schedule: Q01DX009 (ip), vehicle: saline with Tween-80): 90 % of control
- T/C [11]: 105 % of control
- T/C [12]: 95 % of control

SMILES: COCCOCC(=O)O
- T/C [1]: 101 % of control
- T/C [2]: 96 % of control
- T/C [3]: 108 % of control

SMILES: O=CNC1CCCCC1c1ccc(C2CCCCC2NC=O)cc1 (stereo not drawn)
- T/C [13]: 97 % of control

SMILES: C/C=C/C(=O)Nc1cccc(OC(=O)NC(C)CC)c1 (stereo not drawn)
- T/C [10]: 98 % of control
- T/C [11]: 87 % of control
- T/C [12]: 93 % of control

SMILES: O=C(NC1CCC(CC2CCCCC2)CC1)c1ccccc1 (stereo not drawn)
- T/C [10]: 92 % of control
- T/C [11]: 97 % of control
- T/C [12]: 113 % of control

SMILES: CCN(CC)C(=O)Cn1ccc(NC(C)=O)nc1=O
- T/C [7]: 104 % of control
- T/C (dose: 100.0 mg/kg/injection, schedule: Q04DX003 (ip), vehicle: saline): 106 % of control
- T/C [8]: 98 % of control
- T/C (dose: 200.0 mg/kg/injection, schedule: Q04DX003 (ip), vehicle: saline): 113 % of control
- T/C [9]: 98 % of control
- T/C (dose: 400.0 mg/kg/injection, schedule: Q04DX003 (ip), vehicle: saline): 111 % of control

SMILES: O=NN(CCCl)C(=O)NC1CCSCC1
- T/C (dose: 0.5 mg/kg/injection, schedule: Q01DX001 (ip), vehicle: carboxymethylcellulose (CMC)): 104 % of control
- T/C (dose: 1.0 mg/kg/injection, schedule: Q01DX001 (ip), vehicle: carboxymethylcellulose (CMC)): 104 % of control
- T/C (dose: 4.0 mg/kg/injection, schedule: Q01DX001 (ip), vehicle: carboxymethylcellulose (CMC)): 179 % of control
- T/C (dose: 5.0 mg/kg/injection, schedule: Q01DX001 (ip), vehicle: carboxymethylcellulose (CMC)): 226 % of control
- T/C (dose: 6.0 mg/kg/injection, schedule: Q01DX001 (ip), vehicle: carboxymethylcellulose (CMC)): 203 % of control and 277 % of control
- T/C (dose: 8.0 mg/kg/injection, schedule: Q01DX001 (ip), vehicle: carboxymethylcellulose (CMC)): 290 % of control and 319 % of control and 322 % of control
- T/C (dose: 9.0 mg/kg/injection, schedule: Q01DX001 (ip), vehicle: carboxymethylcellulose (CMC)): 312 % of control
- T/C (dose: 12.0 mg/kg/injection, schedule: Q01DX001 (ip), vehicle: carboxymethylcellulose (CMC)): 319 % of control and 322 % of control
- T/C (dose: 14.0 mg/kg/injection, schedule: Q01DX001 (ip), vehicle: carboxymethylcellulose (CMC)): 312 % of control
- T/C (dose: 16.0 mg/kg/injection, schedule: Q01DX001 (ip), vehicle: carboxymethylcellulose (CMC)): 234 % of control
- T/C (dose: 18.0 mg/kg/injection, schedule: Q01DX001 (ip), vehicle: carboxymethylcellulose (CMC)): 158 % of control
- T/C (dose: 21.0 mg/kg/injection, schedule: Q01DX001 (ip), vehicle: carboxymethylcellulose (CMC)): 122 % of control
- T/C (dose: 24.0 mg/kg/injection, schedule: Q01DX001 (ip), vehicle: carboxymethylcellulose (CMC)): 90 % of control

SMILES: c1ccc(COCc2ccc(C3N(c4ccccc4)CCN3c3ccccc3)o2)cc1
- T/C [1]: 96 % of control
- T/C [2]: 96 % of control
- T/C [3]: 104 % of control

SMILES: CN1C(=O)C(Br)C(C)(Br)c2ccccc21 (stereo not drawn)
- T/C [13]: 93 % of control
- T/C (dose: 200.0 mg/kg/injection, schedule: Q01DX001 (ip), vehicle: saline): 101 % of control
- T/C (dose: 400.0 mg/kg/injection, schedule: Q01DX001 (ip), vehicle: saline): 92 % of control

SMILES: O=C1C=C(Nc2ccc(Cl)cc2)C(=O)c2ccccc21
- T/C (dose: 75.0 mg/kg/injection, schedule: Q01DX001 (ip), vehicle: carboxymethylcellulose (CMC)): 93 % of control
- T/C (dose: 300.0 mg/kg/injection, schedule: Q01DX001 (ip), vehicle: carboxymethylcellulose (CMC)): 87 % of control
